Experiments:
Assay in all cases: Kinase assay, binding constants (Kd), kinase-tagged T7 phage, qPCR
[1] = target: FGFR4 (Homo sapiens (Human), UniProt P22455)
Method: (§1) Kinase-tagged T7 phage strains were prepared in an E. coli host derived from the BL21 strain. E. coli were grown to log-phase and infected with T7 phage and incubated with shaking at 32° C. until lysis. The lysates were centrifuged and filtered to remove cell debris. Streptavidin-coated magnetic beads were treated with biotinylated small molecule ligands for 30 minutes at room temperature to generate affinity resins for kinase assays. The liganded beads were blocked with excess biotin and washed with blocking buffer SeaBlock (Pierce), […], 1 mM DTT to remove unbound ligand and to reduce non-specific binding.
(§2) Test compounds were prepared as 111λ stocks in 10000 DMS0. Kds were determined using an 11-point 3-fold compound dilution series with three DMSO control points. […] The compounds were then diluted directly into the assays such that the final concentration of DMSO was 0.9%. All reactions performed in polypropylene 384-well plate. Each was a final volume of 0.02 ml. […] The beads were then re-suspended in elution buffer (1×PBS, 0.05% Tween […] non-biotinylated affinity ligand) and incubated at room temperature with shaking for 30 minutes. The kinase concentration in the eluates was measured by qPCR.
(§3) Binding constants were calculated with a standard dose-response curve using the Hill equation: […]
(§4) The Hill Slope was set to −1. Curves were fitted using a non-linear least square fit with the Levenberg-Marquardt algorithm.

[2] = target: FGFR2 (Homo sapiens (Human), UniProt P21802)
Method: as §1, §2, §3, §4

[3] = target: FGFR3 (V555M) (Homo sapiens (Human), UniProt P22607, V555M); conditions: V555M mutant
Method: as §1, §2, §3, §4

[4] = target: FGFR1 (Homo sapiens (Human), UniProt P11362)
Method: as §1, §2, §3, §4

[5] = target: FGFR3 (Homo sapiens (Human), UniProt P22607)
Method: as §1, §2, §3, §4

FGFR4, sequence (P22455 22-802): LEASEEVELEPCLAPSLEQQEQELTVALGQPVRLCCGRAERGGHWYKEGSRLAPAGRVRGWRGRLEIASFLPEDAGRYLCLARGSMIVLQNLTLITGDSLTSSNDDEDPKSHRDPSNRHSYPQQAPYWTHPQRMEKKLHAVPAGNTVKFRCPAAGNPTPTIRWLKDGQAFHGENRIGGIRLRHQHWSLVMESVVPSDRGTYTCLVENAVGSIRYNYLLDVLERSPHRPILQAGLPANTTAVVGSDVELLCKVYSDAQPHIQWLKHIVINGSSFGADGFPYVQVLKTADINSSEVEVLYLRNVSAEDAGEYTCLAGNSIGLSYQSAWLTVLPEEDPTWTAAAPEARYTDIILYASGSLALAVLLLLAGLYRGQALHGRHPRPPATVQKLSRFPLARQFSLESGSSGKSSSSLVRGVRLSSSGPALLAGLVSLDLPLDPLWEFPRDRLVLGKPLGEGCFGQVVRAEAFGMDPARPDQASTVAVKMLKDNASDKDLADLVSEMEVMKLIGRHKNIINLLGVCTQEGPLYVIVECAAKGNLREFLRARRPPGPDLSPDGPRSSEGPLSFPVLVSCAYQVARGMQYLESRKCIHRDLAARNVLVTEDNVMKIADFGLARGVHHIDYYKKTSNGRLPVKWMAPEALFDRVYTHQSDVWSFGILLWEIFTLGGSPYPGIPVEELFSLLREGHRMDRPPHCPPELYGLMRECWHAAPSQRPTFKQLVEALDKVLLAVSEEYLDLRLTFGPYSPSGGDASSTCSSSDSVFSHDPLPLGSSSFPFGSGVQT
FGFR3, sequence (P22607 23-806): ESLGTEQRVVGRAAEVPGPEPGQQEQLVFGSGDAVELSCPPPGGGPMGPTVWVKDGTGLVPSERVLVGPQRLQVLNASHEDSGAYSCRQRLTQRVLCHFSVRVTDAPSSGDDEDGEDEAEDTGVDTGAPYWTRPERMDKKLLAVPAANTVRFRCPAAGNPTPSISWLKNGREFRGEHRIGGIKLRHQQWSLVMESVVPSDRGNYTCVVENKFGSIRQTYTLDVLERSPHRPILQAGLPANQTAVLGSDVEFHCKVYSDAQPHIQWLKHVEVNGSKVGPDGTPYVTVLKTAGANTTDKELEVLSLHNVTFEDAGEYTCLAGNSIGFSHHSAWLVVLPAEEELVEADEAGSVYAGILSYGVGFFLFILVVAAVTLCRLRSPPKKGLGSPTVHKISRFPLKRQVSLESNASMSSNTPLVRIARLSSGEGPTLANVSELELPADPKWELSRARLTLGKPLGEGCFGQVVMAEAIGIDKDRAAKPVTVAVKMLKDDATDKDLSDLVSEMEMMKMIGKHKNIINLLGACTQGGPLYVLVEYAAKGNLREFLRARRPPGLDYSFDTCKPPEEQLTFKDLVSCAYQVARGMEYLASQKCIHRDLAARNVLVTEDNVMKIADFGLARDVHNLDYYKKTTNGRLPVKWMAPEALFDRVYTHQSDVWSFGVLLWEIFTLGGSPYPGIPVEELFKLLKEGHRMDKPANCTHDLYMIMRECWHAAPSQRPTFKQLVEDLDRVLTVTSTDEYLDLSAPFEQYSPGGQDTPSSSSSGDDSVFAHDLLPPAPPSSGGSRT
FGFR2, sequence (P21802 22-821): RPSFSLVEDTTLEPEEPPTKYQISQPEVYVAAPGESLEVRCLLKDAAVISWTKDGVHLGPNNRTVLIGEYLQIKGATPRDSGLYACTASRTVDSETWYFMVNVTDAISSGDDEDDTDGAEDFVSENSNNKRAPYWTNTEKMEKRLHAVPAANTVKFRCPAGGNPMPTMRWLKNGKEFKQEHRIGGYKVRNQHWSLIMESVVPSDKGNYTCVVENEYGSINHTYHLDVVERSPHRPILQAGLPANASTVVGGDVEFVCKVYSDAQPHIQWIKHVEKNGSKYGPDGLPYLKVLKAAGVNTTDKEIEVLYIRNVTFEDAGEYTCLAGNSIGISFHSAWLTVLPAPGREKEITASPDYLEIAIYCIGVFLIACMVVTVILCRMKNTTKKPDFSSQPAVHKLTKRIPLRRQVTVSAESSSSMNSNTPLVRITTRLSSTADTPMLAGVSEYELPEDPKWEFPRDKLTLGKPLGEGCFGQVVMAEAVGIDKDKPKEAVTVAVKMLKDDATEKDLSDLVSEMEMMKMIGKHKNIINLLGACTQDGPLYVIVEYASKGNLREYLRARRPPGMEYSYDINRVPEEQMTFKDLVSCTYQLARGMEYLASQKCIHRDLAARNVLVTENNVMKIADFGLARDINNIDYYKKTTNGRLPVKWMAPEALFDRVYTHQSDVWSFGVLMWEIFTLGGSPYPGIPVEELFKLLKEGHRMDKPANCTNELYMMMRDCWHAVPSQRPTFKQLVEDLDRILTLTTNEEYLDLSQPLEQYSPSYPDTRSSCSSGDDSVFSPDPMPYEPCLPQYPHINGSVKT
FGFR1, sequence (P11362 22-822): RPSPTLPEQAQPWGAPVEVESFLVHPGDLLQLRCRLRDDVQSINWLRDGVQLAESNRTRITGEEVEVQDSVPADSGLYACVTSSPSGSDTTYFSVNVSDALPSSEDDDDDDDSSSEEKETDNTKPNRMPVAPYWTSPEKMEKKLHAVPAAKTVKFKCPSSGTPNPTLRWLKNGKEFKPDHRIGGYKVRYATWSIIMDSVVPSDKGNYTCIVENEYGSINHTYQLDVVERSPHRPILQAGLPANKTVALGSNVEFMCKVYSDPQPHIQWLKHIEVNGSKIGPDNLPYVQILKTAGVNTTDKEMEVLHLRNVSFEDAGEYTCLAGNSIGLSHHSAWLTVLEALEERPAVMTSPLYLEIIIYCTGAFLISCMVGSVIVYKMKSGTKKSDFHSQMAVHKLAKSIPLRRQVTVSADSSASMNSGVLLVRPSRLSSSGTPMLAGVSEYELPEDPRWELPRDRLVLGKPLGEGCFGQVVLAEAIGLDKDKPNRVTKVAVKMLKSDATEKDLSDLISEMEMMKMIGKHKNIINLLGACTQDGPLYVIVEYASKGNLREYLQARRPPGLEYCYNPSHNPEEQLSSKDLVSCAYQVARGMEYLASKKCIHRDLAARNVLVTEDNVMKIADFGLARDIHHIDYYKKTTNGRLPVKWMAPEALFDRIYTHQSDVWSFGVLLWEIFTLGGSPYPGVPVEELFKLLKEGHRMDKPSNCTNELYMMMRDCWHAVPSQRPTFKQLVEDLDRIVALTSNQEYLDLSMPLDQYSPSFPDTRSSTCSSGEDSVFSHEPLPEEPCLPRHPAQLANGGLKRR
FGFR3 (V555M), sequence (P22607 23-806 V555M): as the sequence (P22607 23-806) above, with V533M counted along it

`C[C@@H](Oc1ccc2[nH]nc(-c3cnc(N4CC[C@@H]4CO)c(C#N)c3)c2c1)c1c(Cl)cncc1Cl` [Example 351, 5-(5-((R)-1-(3,5-dichloropyridin-4-yl)ethoxy)-1H-indazol-3-yl)-2-((R)-2-(hydroxymethyl)azetidin-1-yl)nicotinonitrile] showed a Kd [1] of 1 to 20 nM, a Kd [2] of 100 to 300 nM and a Kd [3] of 1 to 20 nM. It also gave a Kd [4] of 20 to 100 nM and a Kd [5] of 1 to 20 nM.

With `Cc1ncc(Cl)c([C@@H](C)Oc2ccc3[nH]nc(-c4ccc(N5CC6(COC6)C5)nc4)c3c2)c1Cl` [Example 201, 6-[5-[5-[(1R)-1-(3,5-dichloro-2-methyl-4-pyridyl)ethoxy]-1H-indazol-3-yl]-2-pyridyl]-2-oxa-6-azaspiro[3.3]heptane] the Kd [1] was 1 to 20 nM, the Kd [2] was 1 to 20 nM and the Kd [3] was 1 to 20 nM. It also gave a Kd [4] of 20 to 100 nM and a Kd [5] of 1 to 20 nM.

`C[C@@H](Oc1ccc2[nH]nc(-c3cnc(N4CC(C)(N)C4)c(F)c3)c2c1)c1c(Cl)cncc1Cl` [Example 265, (R)-1-(5-(5-(1-(3,5-dichloropyridin-4-yl)ethoxy)-1H-indazol-3-yl)-3-fluoropyridin-2-yl)-3-methylazetidin-3-amine] was tested, and the Kd [1] was 1 to 20 nM, the Kd [2] was 1 to 20 nM and the Kd [3] was 1 to 20 nM. The Kd [4] was 1 to 20 nM and the Kd [5] was 1 to 20 nM.

With `COc1cc2[nH]nc(-c3ccc(N4CC5(COC5)C4)nc3)c2cc1O[C@H](C)c1c(C)cnnc1C` [Example 202, 6-[5-[5-[(1R)-1-(3,5-dimethylpyridazin-4-yl)ethoxy]-6-methoxy-1H-indazol-3-yl]-2-pyridyl]-2-oxa-6-azaspiro[3.3]heptane] the Kd [1] was 1 to 20 nM, the Kd [2] was 1 to 20 nM and the Kd [3] was 1 to 20 nM. The Kd [4] was 1 to 20 nM and the Kd [5] was 1 to 20 nM.

Compound `C[C@@H]1CCN1c1ncc(-c2n[nH]c3cc(Cl)c(O[C@H](C)c4c(Cl)cncc4Cl)cc23)cc1C#N` [Example 374, 5-(6-chloro-5-((R)-1-(3,5-dichloropyridin-4-yl)ethoxy)-1H-indazol-3-yl)-2-((R)-2-methylazetidin-1-yl)nicotinonitrile] has a Kd [1] of 20 to 100 nM, a Kd [2] greater than 300 nM and a Kd [3] of 20 to 100 nM. It also gave a Kd [4] greater than 300 nM and a Kd [5] of 100 to 300 nM.

`C[C@@H](Oc1ccc2[nH]nc(-c3ccc(N4CC5(CCNCC5)C4)nc3)c2c1)c1c(Cl)cncc1Cl` [Example 110, 3-[6-(2,7-diazaspiro[3.5]nonan-2-yl)-3-pyridyl]-5-[(1R)-1-(3,5-dichloro-4-pyridyl)ethoxy]-1H-indazole] showed a Kd [1] of 1 to 20 nM, a Kd [2] of 1 to 20 nM and a Kd [3] of 1 to 20 nM. For the same compound, the Kd [4] was 1 to 20 nM and the Kd [5] was 1 to 20 nM.

With `CCS(=O)(=O)N1CC2(CN(c3ncc(-c4n[nH]c5ccc(O[C@H](C)c6c(Cl)cnc(C)c6Cl)cc45)cn3)C2)C1` [Example 181, 5-[(1R)-1-(3,5-dichloro-2-methyl-4-pyridyl)ethoxy]-3-[2-(2-ethylsulfonyl-2,6-diazaspiro[3.3]heptan-6-yl)pyrimidin-5-yl]-1H-indazole] the Kd [1] was 1 to 20 nM, the Kd [2] was greater than 300 nM and the Kd [3] was 1 to 20 nM. It also gave a Kd [4] of 100 to 300 nM and a Kd [5] of 1 to 20 nM.

`COc1cc2[nH]nc(-c3ccc(N4CC5(C4)CN(S(C)(=O)=O)C5)nc3)c2cc1O[C@H](C)c1c(Cl)cnc(C)c1Cl` [Example 207, 5-[(1R)-1-(3,5-dichloro-2-methyl-4-pyridyl)ethoxy]-6-methoxy-3-[6-(2-methylsulfonyl-2,6-diazaspiro[3.3]heptan-6-yl)-3-pyridyl]-1H-indazole] showed a Kd [1] of 1 to 20 nM, a Kd [2] of 1 to 20 nM and a Kd [3] of 1 to 20 nM. The Kd [4] was 1 to 20 nM and the Kd [5] was 1 to 20 nM.

With `C[C@@H](Oc1ccc2[nH]nc(-c3ccc(N4CCN5CCC[C@H]5C4)nc3)c2c1)c1c(Cl)cncc1Cl` [Example 183, 3-[6-[(8aS)-3,4,6,7,8,8a-hexahydro-1H-pyrrolo[1,2-a]pyrazin-2-yl]-3-pyridyl]-5-[(1R)-1-(3,5-dichloro-4-pyridyl)ethoxy]-1H-indazole] the Kd [1] was 1 to 20 nM, the Kd [2] was 1 to 20 nM and the Kd [3] was 1 to 20 nM. For the same compound, the Kd [4] was 1 to 20 nM and the Kd [5] was 1 to 20 nM.

Work on `COc1cc2[nH]nc(-c3cnc(N4CC5(C4)CN(S(C)(=O)=O)C5)nc3)c2cc1O[C@H](C)c1c(Cl)cncc1Cl` [Example 239, 5-[(1R)-1-(3,5-dichloro-4-pyridyl)ethoxy]-6-methoxy-3-[2-(2-methylsulfonyl-2,6-diazaspiro[3.3]heptan-6-yl)pyrimidin-5-yl]-1H-indazole] yielded a Kd [1] of 1 to 20 nM, a Kd [2] of 1 to 20 nM and a Kd [3] of 1 to 20 nM. For the same compound, the Kd [4] was 1 to 20 nM and the Kd [5] was 1 to 20 nM.

With `COc1cc2[nH]nc(-c3cnc(N4CC[C@@H]4C)c(F)c3)c2cc1O[C@H](C)c1c(Cl)cncc1Cl` [Example 271, 5-((R)-1-(3,5-dichloropyridin-4-yl)ethoxy)-3-(5-fluoro-6-((S)-2-methylazetidin-1-yl)pyridin-3-yl)-6-methoxy-1H-indazole] the Kd [1] was 1 to 20 nM, the Kd [2] was 20 to 100 nM and the Kd [3] was 1 to 20 nM. For the same compound, the Kd [4] was 20 to 100 nM and the Kd [5] was 1 to 20 nM.

With `C[C@@H](Oc1ccc2[nH]nc(-c3cnc(N4CC(C(F)(F)F)C4)c(C#N)c3)c2c1)c1c(Cl)cncc1Cl` [Example 347, (R)-5-(5-(1-(3,5-dichloropyridin-4-yl)ethoxy)-1H-indazol-3-yl)-2-(3-(trifluoromethyl)azetidin-1-yl)nicotinonitrile] the Kd [1] was 1 to 20 nM, the Kd [2] was greater than 300 nM and the Kd [3] was 20 to 100 nM. It also gave a Kd [4] greater than 300 nM and a Kd [5] of 20 to 100 nM.

`C[C@@H](Oc1ccc2[nH]nc(-c3ccc(N4CC5(CCOC5)C4)nc3)c2c1)c1c(Cl)cnc(F)c1Cl` [Example 204, (R)-2-(5-(5-(1-(3,5-dichloro-2-fluoropyridin-4-yl)ethoxy)-1H-indazol-3-yl)pyridin-2-yl)-6-oxa-2-azaspiro[3.4]octane] gave a Kd [1] of 20 to 100 nM, a Kd [2] of 1 to 20 nM and a Kd [3] of 1 to 20 nM. The Kd [4] was 20 to 100 nM and the Kd [5] was 1 to 20 nM.

Compound `COC(=O)N1CCCC2(C1)CN(c1ccc(-c3n[nH]c4ccc(O[C@H](C)c5c(C)cnnc5C)cc34)cn1)C2` [Example 187, methyl 2-[5-[5-[(1R)-1-(3,5-dimethylpyridazin-4-yl)ethoxy]-1H-indazol-3-yl]-2-pyridyl]-2,8-diazaspiro[3.5]nonane-8-carboxylate] has a Kd [1] of 1 to 20 nM, a Kd [2] of 1 to 20 nM and a Kd [3] of 1 to 20 nM. The Kd [4] was 1 to 20 nM and the Kd [5] was 1 to 20 nM.

For `Cc1ncc(Cl)c([C@@H](C)Oc2ccc3[nH]nc(-c4cnc(N5CC6(C5)CN(S(C)(=O)=O)C6)c(F)c4)c3c2)c1Cl` [Example 244, 5-[(1R)-1-(3,5-dichloro-2-methyl-4-pyridyl)ethoxy]-3-[5-fluoro-6-(2-methylsulfonyl-2,6-diazaspiro[3.3]heptan-6-yl)-3-pyridyl]-1H-indazole], the Kd [1] was 1 to 20 nM, the Kd [2] was 20 to 100 nM and the Kd [3] was 1 to 20 nM. The Kd [4] was 20 to 100 nM and the Kd [5] was 1 to 20 nM.

`C[C@H](Oc1ccc2[nH]nc(-c3ccc(N4CC5(C4)CN(S(C)(=O)=O)C5)nc3)c2c1)c1c(Cl)cnc(F)c1Cl` [Example 199, 5-[(1S)-1-(3,5-dichloro-2-fluoro-4-pyridyl)ethoxy]-3-[6-(2-methylsulfonyl-2,6-diazaspiro[3.3]heptan-6-yl)-3-pyridyl]-1H-indazole] was tested, and the Kd [1] was greater than 300 nM, the Kd [2] was greater than 300 nM and the Kd [3] was 20 to 100 nM. The Kd [4] was greater than 300 nM and the Kd [5] was 100 to 300 nM.

`COc1cc2[nH]nc(-c3cnc(N4CCC4)c(C#N)c3)c2cc1O[C@H](C)c1c(Cl)cnnc1Cl` [Example 360, (R)-2-(azetidin-1-yl)-5-(5-(1-(3,5-dichloropyridazin-4-yl)ethoxy)-6-methoxy-1H-indazol-3-yl)nicotinonitrile] was tested, and the Kd [1] was 1 to 20 nM, the Kd [2] was 20 to 100 nM and the Kd [3] was greater than 300 nM. The Kd [4] was 100 to 300 nM and the Kd [5] was 20 to 100 nM.

`C[C@@H](Oc1ccc2[nH]nc(-c3ccc(N4CCOCC4)cn3)c2c1)c1c(Cl)cncc1Cl` [Example 103, 4-[6-[5-[(1R)-1-(3,5-dichloro-4-pyridyl)ethoxy]-1H-indazol-3-yl]-3-pyridyl]morpholine] gave a Kd [1] of 1 to 20 nM, a Kd [2] of 20 to 100 nM and a Kd [3] of 1 to 20 nM. The Kd [4] was 1 to 20 nM and the Kd [5] was 1 to 20 nM.

`COc1cc2[nH]nc(-c3cnc(N4CCC4)c(C#N)c3)c2cc1O[C@H](C)c1c(C)cnnc1C` [Example 322, (R)-2-(azetidin-1-yl)-5-(5-(1-(3,5-dimethylpyridazin-4-yl)ethoxy)-6-methoxy-1H-indazol-3-yl)nicotinonitrile] gave a Kd [1] of 1 to 20 nM, a Kd [2] of 20 to 100 nM and a Kd [3] of 1 to 20 nM. The Kd [4] was 100 to 300 nM and the Kd [5] was 20 to 100 nM.

Work on `COc1cc2[nH]nc(-c3ccc(N4CC5(COC5)C4)nc3)c2cc1O[C@H](C)c1c(Cl)cnc(C)c1Cl` [Example 211, 6-[5-[5-[(1R)-1-(3,5-dichloro-2-methyl-4-pyridyl)ethoxy]-6-methoxy-1H-indazol-3-yl]-2-pyridyl]-2-oxa-6-azaspiro[3.3]heptane] yielded a Kd [1] of 1 to 20 nM, a Kd [2] of 1 to 20 nM and a Kd [3] of 1 to 20 nM. For the same compound, the Kd [4] was 1 to 20 nM and the Kd [5] was 1 to 20 nM.

From US20240109865A1, “INDAZOLE COMPOUNDS AS KINASE INHIBITORS” (TYRA BIOSCIENCES, INC., priority 2020, published 2024)
